According to patent US10035800B2 (AbbVie Inc., priority 2013, dated 2018):
“And” between values parts separate entries of the source, which are not always exact repeats. Equal values may be shown once. Read-outs that look alike come from different tables or passages of the source. Marks after values point to notes of the source that are not given here.

Experiments:
BRD4 (BDII_E352-M457) = molecular target: T1, BRD4 (BDII_E352-M457) (Homo sapiens, UniProt O60885); experiment: TR-FRET bromodomain binding assay, second bromodomain of BRD4; conditions: 30 nM probe
T1 construct: protocol; made in house
Outline: (§1)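 His-tagged BRD4 bromodomain (8 nM) was incubated with Eu-anti-His antibody (1 nM) and an Alexa647-labelled BET-inhibitor probe (100 nM for BDI, 30 nM for BDII) in pH 6.0 phosphate buffer with 2% DMSO for 1 h at room temperature. TR-FRET ratio was read, IC50 fitted by 4-parameter logistic, then converted to Ki.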

BRD4 (BDI_K57-E168) = molecular target: T2, BRD4 (BDI_K57-E168) (Homo sapiens, UniProt O60885); experiment: TR-FRET bromodomain binding assay, first bromodomain of BRD4; conditions: 100 nM probe
T2 construct: BD1: amino acids K57-E168; made in house
Outline: as §1

OPM-2 xenograft tumors = conditions: SCID-beige mice
Experimental: Xenograft Tumor Growth Inhibition Assay
A suspension of cancer cells (5×10^6 per 0.1 mL) prepared in RPMI culture medium (Invitrogen, Carlsbad, Calif.) was diluted 1:1 with a solution of Matrigel™ (BD Biosciences, Franklin Lakes, N.J.) and inoculated subcutaneously into the right hind flank of female SCID-beige (Charles River Labs) mice. Randomization into treatment and vehicle control groups (8-10/group) occurred when the mean tumor volume reached approximately 250 mm^3. Compounds were formulated in 2.5% DMSO, 10% ethanol, 27.5% PEG 400, 60% Phosol 53 MCT. Administration of compound or vehicle was initiated on the day following randomization and continued for 21 days. Tumors were measured twice a week throughout the treatment period using a pair of calipers and tumor volumes were calculated according to the formula V=L×W^2/2 (V: volume, mm^3; L: length, mm. W: width, mm).

[1] = tested on: IL-6 (Interleukin-6) production; experiment: LPS (lipopolysaccharide) induced IL-6 production mouse assay; format: in vivo, mice; conditions: oral administration 1 h before LPS 2.5 mg/kg ip, serum 2 h after LPS, p < 0.05 vs vehicle
Experimental: LPS (Lipopolysaccharide) Induced IL-6 Production Mouse Assay
Compounds of the Examples listed in Table 2 were assayed for their ability to inhibit LPS (lipopolysaccharide) induced IL-6 (Interleukin-6) production in mice. Fox Chase SCID® female mice (Charles Rivers Labs, 5 per group) or CD1 female mice (5 per group) received an intraperitoneal challenge of lipopolysaccharide (2.5 mg/kg, L2630 E. coli 0111:B4) one hour after oral administration of compounds. Mice were euthanized 2 hours after lipopolysaccharide injection, blood was removed by cardiac puncture, and then the serum harvested from the blood samples was frozen at −80° C. On the day of the assay the serum samples were brought to room temperature and then diluted 1:20 in phosphate-buffered saline containing 2% bovine serum albumin. Interleukin-6 measurements were performed using a cytokine assay from Meso Scale Discovery (Gaithersburg, Md.) for mouse serum analysis according to the manufacturer's protocol and read on a SECTOR Imager 6000 (Meso Scale Discovery, Gaithersburg, Md.) instrument. Statistical analysis was performed using Prism software (version 5.0) incorporating Dunnett's one way ANOVA. The IL-6 mean and standard deviation of the group of vehicle treated animals were compared with the IL-6 mean and standard deviation of the group treated with drug. A p value <0.05 means that there is less than a 5% probability that the mean values in the two groups are equal.

[2] = tested on: breast cancer cell line MX-1; experiment: MX-1 cell line proliferation assay; format: cell-based; conditions: MX-1 cells, 3-day proliferation assay, Cell Titer Glo, read-out: Cellular proliferation: EC50
Outline: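 EC50 comes from sigmoidal fits of Cell Titer Glo luminescence relative to DMSO controls, with assay MSR 2.1. Ten-point 3-fold dilutions (top 3 or 1 μM final) were added to MX-1 breast cancer cells after overnight adhesion. Cells were at 5000/well and proliferation ran 3 days.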

[3] = TR-FRET assay protocol G (compound 0.92 μM-15 pM)
[4] = TR-FRET assay protocol E (compound 9.19 μM-150 pM)

Row | Ki (BRD4 (BDII_E352-M457); [3]) | Ki (BRD4 (BDI_K57-E168); [3]) | EC50 [2] | Compound | % inhibition of LPS induced IL-6 production ([1]; mouse strain SCID) | % inhibition of LPS induced IL-6 production ([1]; mouse strain CD1) | further results
1 | 1.11 nM | 0.453 nM | 0.721 nM | Cn1cc2c3c(c[nH]c3c1=O)CN(c1ccc(F)cc1)c1ccc(CS(C)(=O)=O)cc1-2 [Example 9, 4-(4-fluorophenyl)-10-methyl-7-((methylsulfonyl)methyl)-3,4-dihydro-1H-1,4,10-triazadibenzo[cd,f]azulen-11(10H)-one] | 79% |  | % TGI (OPM-2 xenograft tumors; 1.85 mg/kg PO, QD x21): 87*** %
2 | 0.472 nM | 1.34 nM | 4 nM | Cn1cc2c3c(c[nH]c3c1=O)CN(c1ccc(F)cc1F)c1ccc(CS(C)(=O)=O)cc1-2 [Example 12, 4-(2,4-difluorophenyl)-10-methyl-7-((methylsulfonyl)methyl)-3,4-dihydro-1H-1,4,10-triazadibenzo[cd,f]azulen-11(10H)-one] | 90% |  | % TGI (OPM-2 xenograft tumors; 1.5 mg/kg IP, QD x21): 82** % and 91*** %; % TGI (OPM-2 xenograft tumors; 1.5 mg/kg PO, QD x21): 87*** %; % TGI (OPM-2 xenograft tumors; 3 mg/kg IP, QD x21): 89** %; % TGI (OPM-2 xenograft tumors; 3 mg/kg PO, 3 on 4 off x3 weeks): 81*** %; % TGI (OPM-2 xenograft tumors; 3 mg/kg PO, QD x11): 72*** %; % TGI (OPM-2 xenograft tumors; 3 mg/kg PO, QD x21): 94*** %
3 | 1.72 nM | 1.14 nM | 3.82 nM | Cn1cc2c3c(c[nH]c3c1=O)CN(C1CCC(NC(=O)OC(C)(C)C)CC1)c1ccc(CS(C)(=O)=O)cc1-2 (mixture of isomers) [Example 196] |  | 79% | % TGI (OPM-2 xenograft tumors; 2.5 mg/kg PO, QD x21): 84*** %; % TGI (OPM-2 xenograft tumors; 5 mg/kg PO, QD x21): 92*** %
4 | 0.42 nM | 0.65 nM | 1.4 nM | Cn1cc2c3c(c[nH]c3c1=O)CN(c1ncc(F)cc1F)c1ccc(CS(C)(=O)=O)cc1-2 [Example 213, 4-(3,5-difluoropyridin-2-yl)-10-methyl-7-((methylsulfonyl)methyl)-3,4-dihydro-1H-1,4,10-triazadibenzo[cd,f]azulen-11(10H)-one] |  |  | % TGI (OPM-2 xenograft tumors; 0.5 mg/kg PO, QD x21): 82*** %; % TGI (OPM-2 xenograft tumors; 1 mg/kg PO, QD x21): 96*** % and 95*** %
5 |  |  | 5.68 nM | Cn1cc2c3c(c[nH]c3c1=O)CN(c1ccc(F)cc1)c1ccc(S(C)(=O)=O)cc1-2 [Example 8, 4-(4-fluorophenyl)-10-methyl-7-(methylsulfonyl)-3,4-dihydro-1H-1,4,10-triazadibenzo[cd,f]azulen-11(10H)-one] | 53% |  | Ki (BRD4 (BDII_E352-M457); [4]): 3.77 nM; Ki (BRD4 (BDI_K57-E168); [4]): 0.646 nM
6 | 1.18 nM | 1.67 nM |  | [2H]C1([2H])c2c[nH]c3c(=O)n(C)cc(c23)-c2cc(CS(C)(=O)=O)ccc2N1c1ccc(F)cc1 [Example 31, 4-(4-fluorophenyl)-(3,3-^2H2)-10-methyl-7-((methylsulfonyl)methyl)-3,4-dihydro-1H-1,4,10-triazadibenzo[cd,f]azulen-11(10H)-one] | 83% |  | EC50 ([2]; Homo sapiens, MX1, 72 h): 0.752 nM
7 | 3.14 nM | 6.72 nM | 19.9 nM | CCOC(=O)N1Cc2c[nH]c3c(=O)n(C)cc(c23)-c2cc(F)cc(F)c21 [Example 173, ethyl 5,7-difluoro-10-methyl-11-oxo-10,11-dihydro-1H-1,4,10-triazadibenzo[cd,f]azulene-4(3H)-carboxylate] |  | 87% | % TGI (OPM-2 xenograft tumors; 1.25 mg/kg PO, QD x21): 49** %
8 |  |  | 1.27 nM | 4-((4,4-difluorocyclohexyl)methyl)-10-methyl-7-((methylsulfonyl)methyl)-3,4-dihydro-1H-1,4,10-triazadibenzo[cd,f]azulen-11(10H)-one [Example 27] | 79% |  | Ki (BRD4 (BDII_E352-M457); [4]): 1.01 nM; Ki (BRD4 (BDI_K57-E168); [4]): 1.19 nM
9 | 1.21 nM | 0.81 nM | 10.8 nM | Cn1cc2c3c(c(C#N)[nH]c3c1=O)CN(c1ccc(Cl)cc1)c1ccc(CS(C)(=O)=O)cc1-2 [Example 199, 4-(4-chlorophenyl)-10-methyl-7-((methylsulfonyl)methyl)-11-oxo-3,4,10,11-tetrahydro-1H-1,4,10-triazadibenzo[cd,f]azulene-2-carbonitrile] |  | 90% | % TGI (OPM-2 xenograft tumors; 1.25 mg/kg PO, QD x21): 91*** %
10 | 2.09 nM | 0.92 nM | 1.33 nM | Cn1cc2c3c(c[nH]c3c1=O)CN(c1ccccn1)c1ccc(CS(C)(=O)=O)cc1-2 [Example 207, 10-methyl-7-((methylsulfonyl)methyl)-4-(pyridin-2-yl)-3,4-dihydro-1H-1,4,10-triazadibenzo[cd,f]azulen-11(10H)-one] |  | 65% | % TGI (OPM-2 xenograft tumors; 0.25 mg/kg PO, QD x21): 60*** %; % TGI (OPM-2 xenograft tumors; 0.5 mg/kg PO, QD x21): 93*** % and 94*** %; % TGI (OPM-2 xenograft tumors; 1 mg/kg PO, QD x21): 97*** %
11 | 0.972 nM | 3.1 nM | 3.8 nM | CCNC(=O)c1[nH]c2c(=O)n(C)cc3c2c1CN(c1ccc(Cl)cc1)c1ccc(CS(C)(=O)=O)cc1-3 [Example 59, 4-(4-chlorophenyl)-N-ethyl-10-methyl-7-((methylsulfonyl)methyl)-11-oxo-3,4,10,11-tetrahydro-1H-1,4,10-triazadibenzo[cd,f]azulene-2-carboxamide] |  | 68% | 

Row | Compound | Ki (BRD4 (BDII_E352-M457); [3]) | Ki (BRD4 (BDI_K57-E168); [3]) | EC50 [2] | % inhibition of LPS induced IL-6 production ([1]; mouse strain SCID) | % inhibition of LPS induced IL-6 production ([1]; mouse strain CD1) | further results
12 | 4-(cyclopropylmethyl)-10-methyl-7-((methylsulfonyl)methyl)-3,4-dihydro-1H-1,4,10-triazadibenzo[cd,f]azulen-11(10H)-one [Example 6] |  |  | 2.01 nM | 64% |  | Ki (BRD4 (BDII_E352-M457); [4]): 1.71 nM; Ki (BRD4 (BDI_K57-E168); [4]): 1.08 nM
